One test deals with T1, Toll-like receptor 8 (Homo sapiens, UniProt Q9NR97).
T1 sequence (Q9NR97 whole entry): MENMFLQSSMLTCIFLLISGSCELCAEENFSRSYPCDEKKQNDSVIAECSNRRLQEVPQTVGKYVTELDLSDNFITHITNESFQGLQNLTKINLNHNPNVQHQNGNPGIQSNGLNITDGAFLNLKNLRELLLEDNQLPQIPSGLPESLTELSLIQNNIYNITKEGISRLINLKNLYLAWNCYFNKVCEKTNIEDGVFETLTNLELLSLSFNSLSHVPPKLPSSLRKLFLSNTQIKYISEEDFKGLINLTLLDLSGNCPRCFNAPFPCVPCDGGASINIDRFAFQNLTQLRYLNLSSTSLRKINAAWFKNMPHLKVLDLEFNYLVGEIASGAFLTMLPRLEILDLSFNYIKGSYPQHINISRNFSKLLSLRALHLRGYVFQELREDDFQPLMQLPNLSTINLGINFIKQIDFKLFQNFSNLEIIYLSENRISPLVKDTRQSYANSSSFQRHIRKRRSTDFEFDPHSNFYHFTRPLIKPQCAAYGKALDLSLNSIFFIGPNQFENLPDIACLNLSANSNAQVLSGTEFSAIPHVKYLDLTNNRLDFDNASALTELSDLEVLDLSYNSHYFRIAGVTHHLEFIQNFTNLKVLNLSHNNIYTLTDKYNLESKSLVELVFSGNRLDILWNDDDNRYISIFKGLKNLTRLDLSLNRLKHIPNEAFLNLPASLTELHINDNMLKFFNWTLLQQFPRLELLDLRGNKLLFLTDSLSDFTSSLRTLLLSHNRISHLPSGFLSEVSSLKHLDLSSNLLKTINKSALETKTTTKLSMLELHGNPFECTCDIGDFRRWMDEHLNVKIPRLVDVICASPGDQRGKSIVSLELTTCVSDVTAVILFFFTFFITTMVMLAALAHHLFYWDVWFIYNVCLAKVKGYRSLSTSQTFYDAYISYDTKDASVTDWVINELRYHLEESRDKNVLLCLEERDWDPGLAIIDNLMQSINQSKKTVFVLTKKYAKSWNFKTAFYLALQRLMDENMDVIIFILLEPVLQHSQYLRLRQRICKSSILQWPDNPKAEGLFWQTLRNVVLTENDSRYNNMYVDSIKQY
Description: Agonist activity at human TLR8 expressed in HEK-blue TLR cells measured for 18 to 19 hrs by SEAP reporter gene based assay. The class given is cell-based.

The target of test [1] is T2, Toll-like receptor 7 (Homo sapiens, UniProt Q9NYK1).
T2 sequence (Q9NYK1 whole entry): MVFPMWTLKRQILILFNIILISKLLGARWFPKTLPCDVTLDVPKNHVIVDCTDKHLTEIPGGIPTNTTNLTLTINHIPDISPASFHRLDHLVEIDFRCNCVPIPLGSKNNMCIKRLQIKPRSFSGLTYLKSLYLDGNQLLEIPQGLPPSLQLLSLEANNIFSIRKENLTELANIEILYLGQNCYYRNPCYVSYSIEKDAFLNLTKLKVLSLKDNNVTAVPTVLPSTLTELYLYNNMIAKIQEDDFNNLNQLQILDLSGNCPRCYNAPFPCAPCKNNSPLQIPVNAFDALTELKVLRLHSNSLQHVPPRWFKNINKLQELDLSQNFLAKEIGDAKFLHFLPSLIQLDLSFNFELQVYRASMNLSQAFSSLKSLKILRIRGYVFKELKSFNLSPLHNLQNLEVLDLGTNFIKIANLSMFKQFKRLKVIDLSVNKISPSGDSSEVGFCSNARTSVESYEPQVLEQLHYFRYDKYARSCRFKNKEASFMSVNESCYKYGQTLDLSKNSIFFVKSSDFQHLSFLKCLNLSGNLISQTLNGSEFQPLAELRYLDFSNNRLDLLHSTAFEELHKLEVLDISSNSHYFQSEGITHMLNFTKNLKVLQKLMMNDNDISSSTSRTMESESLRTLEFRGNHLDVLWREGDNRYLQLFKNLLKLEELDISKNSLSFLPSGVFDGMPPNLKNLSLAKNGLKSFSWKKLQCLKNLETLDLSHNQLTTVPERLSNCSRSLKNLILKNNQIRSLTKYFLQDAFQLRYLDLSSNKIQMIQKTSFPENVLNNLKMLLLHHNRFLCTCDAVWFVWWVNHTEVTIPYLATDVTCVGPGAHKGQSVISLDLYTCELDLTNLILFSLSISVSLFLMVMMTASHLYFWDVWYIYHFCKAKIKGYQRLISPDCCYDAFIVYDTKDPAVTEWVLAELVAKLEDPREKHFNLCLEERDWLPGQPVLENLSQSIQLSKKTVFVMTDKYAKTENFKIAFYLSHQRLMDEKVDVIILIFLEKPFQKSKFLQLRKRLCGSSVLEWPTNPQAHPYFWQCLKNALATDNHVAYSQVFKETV
Description: Agonist activity at human TLR7 expressed in HEK-blue TLR cells measured for 18 to 19 hrs by SEAP reporter gene based assay. The class given is cell-based. On the technique in general: In a reporter assay the amount or activity of a reporter protein is the signal.

Test [2] concerns the target T3, Toll-like receptor 7 (Mus musculus, UniProt P58681).
T3 sequence (P58681 whole entry): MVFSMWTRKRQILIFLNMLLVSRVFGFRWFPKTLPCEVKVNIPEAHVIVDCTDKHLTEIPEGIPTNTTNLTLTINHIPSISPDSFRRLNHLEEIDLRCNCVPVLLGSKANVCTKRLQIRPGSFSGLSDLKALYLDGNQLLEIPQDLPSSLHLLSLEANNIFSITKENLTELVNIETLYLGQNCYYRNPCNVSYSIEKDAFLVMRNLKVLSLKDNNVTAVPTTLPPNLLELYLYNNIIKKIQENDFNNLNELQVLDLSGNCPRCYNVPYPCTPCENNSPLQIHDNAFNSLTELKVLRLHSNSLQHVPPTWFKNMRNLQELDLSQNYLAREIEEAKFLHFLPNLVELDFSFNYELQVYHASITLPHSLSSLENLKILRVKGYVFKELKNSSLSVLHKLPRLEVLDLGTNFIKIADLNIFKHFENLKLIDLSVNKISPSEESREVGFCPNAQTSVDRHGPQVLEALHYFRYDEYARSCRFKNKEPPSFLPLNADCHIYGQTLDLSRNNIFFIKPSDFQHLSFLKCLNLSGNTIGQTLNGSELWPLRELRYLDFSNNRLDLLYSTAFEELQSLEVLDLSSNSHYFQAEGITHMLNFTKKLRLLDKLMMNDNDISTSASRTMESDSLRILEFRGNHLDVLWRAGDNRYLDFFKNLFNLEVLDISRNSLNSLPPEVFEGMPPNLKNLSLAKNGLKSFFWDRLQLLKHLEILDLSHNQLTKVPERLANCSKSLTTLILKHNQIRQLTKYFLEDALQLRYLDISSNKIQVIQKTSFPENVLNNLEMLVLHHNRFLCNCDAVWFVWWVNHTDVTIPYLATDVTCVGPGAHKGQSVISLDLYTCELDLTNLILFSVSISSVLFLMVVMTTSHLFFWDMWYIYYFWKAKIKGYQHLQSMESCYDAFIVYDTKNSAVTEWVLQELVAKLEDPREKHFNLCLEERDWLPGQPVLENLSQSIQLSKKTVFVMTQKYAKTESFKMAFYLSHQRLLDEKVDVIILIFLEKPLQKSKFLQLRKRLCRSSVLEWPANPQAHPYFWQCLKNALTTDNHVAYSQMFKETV
Description: Agonist activity at mouse TLR7 expressed in HEK293 cells co-expressing NF-kappaB/AP-1 inducible SEAP reporter gene measured for 24 hrs by colorimetric analysis. The class given is cell-based.

Test [3] has as its target T2, Toll-like receptor 7. Description: Agonist activity at TLR7 (unknown origin).
The nature of test [4]: In-vivo activation of mouse TLR7-mediated innate immune response in immunocompetent BALB/c mouse vaccinated with inactivated influenza A virus H1N1 A/Puerto Rico/8/1934 assessed as fold increase in IgG2a level in serum at 1 ug measured 3 weeks after immunization in presence of N6-butyl-7-(4-((diethylamino)methyl)-2-methoxybenzyl)-7H-purine-2,6-diamine by ELISA analysis. The class given is functional. Conditions: dose 1 µg. Background: In an ELISA, binding on a coated surface is turned into a signal by an enzyme label.

In test [5] the target is T4, Toll-like receptor 7 (Mus musculus) (UniProt P58681).
T4 sequence (whole entry): T3 sequence (P58681 whole entry)
Description: Agonist activity at mouse TLR7 expressed in HEK293 cells co-expressing NF-kappaB/AP-1 inducible SEAP reporter gene at 33 uM measured for 24 hrs by colorimetric analysis relative to control. The format is cell-based.

For test [6], the species on record is Mus musculus. Description: Immunostimulatory activity in BALB/c mouse vaccinated with inactivated PR8 (A/H1N1) assessed as decrease in body weight at 1 ug measured 3 weeks after immunization. The class given is functional, organism-based. The conditions noted are these: dose 1.0 µg.
The species named for test [7] is Mus musculus. Description: Immunostimulatory activity in BALB/c mouse vaccinated with inactivated PR8 (A/H1N1) assessed as animal survival at 0.1 ug measured 3 weeks after immunization. The class given is functional. The conditions noted are these: dose 0.1 µg.
For test [8], the system named is Mus musculus. Description: In-vivo protection against influenza A virus PR8 (A/H1N1) infection in immunocompetent BALB/c mouse model assessed as animal survival rate at 1 ug pretreated with compound for 3 weeks followed by viral infection and measured daily for 2 weeks. The format is functional. The conditions noted are these: dose 1 µg; time 5 weeks.
The test system of test [9] is Mus musculus. Description: In-vivo protection against influenza A virus PR8 (A/H1N1) infection in immunocompetent BALB/c mouse model assessed as animal survival rate at 0.01 ug pretreated with compound for 3 weeks followed by viral infection and measured daily for 2 weeks. The class given is functional. Conditions: dose 0.01 µg; time 5 weeks.
Test [10] is filed under the species Mus musculus. Description: Immunostimulatory activity in BALB/c mouse vaccinated with inactivated PR8 (A/H1N1) assessed as animal survival at 1 ug measured 3 weeks after immunization. The format is functional. The conditions noted are these: dose 1 µg.
For test [11], the species on record is Mus musculus. Description: Immunostimulatory activity in BALB/c mouse vaccinated with inactivated PR8 (A/H1N1) assessed as animal survival at 0.01 ug measured 3 weeks after immunization. The format is functional. Conditions: dose 0.01 µg.

As a reminder, the EC50 is the concentration giving half of the maximal effect. Usually Emax stands for the size of the effect at its maximum, as opposed to the concentration needed.

Activity calls are given as the source filed them. The rule behind the calls is not given here.

Regarding `CCCCNc1nc(N)nc2ncn(Cc3ccc(CN4CCN(C)CC4)cc3OC)c12`, the EC50 was under 10000 nM on Toll-like receptor 8 (hek-blue tlr) and 24.7 nM at Toll-like receptor 7 [1].

The molecule `CCCCNc1nc(N)nc2ncn(Cc3ccc(CN4CCCCC4)cc3OC)c12` gave an EC50 at Toll-like receptor 7 [1] of 20.5 nM.

`CCCCNc1nc(N)nc2ncn(Cc3ccc(CN4CCNCC4)cc3OC)c12` came in with an EC50 on Toll-like receptor 7 [1] of 169 nM.

Molecule `CCOCc1nc2c(N)nc3ccccc3c2n1CC(C)(C)C` came in with an EC50 on Toll-like receptor 7 [2] of 299 nM.

`CC(C)Cn1cnc2c(N)nc3ccccc3c21` [IMIQUIMOD] returned an EC50 on Toll-like receptor 7 [3] of 202 nM.

Molecule `CCCN(CCC)C(=O)C1=Cc2ccc(-c3ccc(C(=O)N4CCCC4)cc3)cc2N=C(N)C1` [MOTOLIMOD] gave an EC50 on Toll-like receptor 8 of 83.2 nM.

As for `CCCCOc1nc(N)c2c(n1)N(Cc1cccc(CN3CCCC3)c1)CC(=O)N2` [VESATOLIMOD], the “fold change (FC)” value in test [4] came to 5.2. The molecule also showed an Emax in test [5] of 0.657%. Further, a half-maximal response at Toll-like receptor 7 [2] (EC50) required 4570 nM. In addition, in the test listed under Mus musculus [6], the result was Active.

Take `CCCCNc1nc(N)nc2ncn(Cc3ccc(CN(CC)CC)cc3OC)c12`: the Survival is given as 33.3% in the test filed under Mus musculus [7]; 100% in the test on Mus musculus [8]; 16.7% with Mus musculus [9]; 66.7% in the test filed under Mus musculus [10]; 16.7% in the test listed under Mus musculus [11]. In addition, the EC50 on Toll-like receptor 7 [2] was determined as 41.7 nM; at Toll-like receptor 7 [1], 17.5 nM.

On to `CCCCNc1nc(N)nc2ncn(Cc3ccc(CN(C)C)cc3OC)c12`, for which, at Toll-like receptor 7 [1], the response was half-maximal at 29.7 nM (EC50).

On Toll-like receptor 7 [1], `COc1cc(CO)ccc1Cn1cnc2nc(N)nc(NCc3ccccc3)c21` gave an EC50 of 2800 nM.

The values above are taken from ChEMBL document CHEMBL5512680, “Design, Synthesis, and Biological Evaluation of New 2,6,7-Substituted Purine Derivatives as Toll-like Receptor 7 Agonists for Intranasal Vaccine Adjuvants” (J Med Chem, 2024).
